Data: ChEMBL document CHEMBL1909046, “DrugMatrix in vitro pharmacology data”

Key:
Acetylcholinesterase = Acetylcholinesterase (Homo sapiens, UniProt P22303); experiment: DRUGMATRIX: Acetylcholinesterase enzyme inhibition (substrate: acetylthiocholine); format: cell-based, HEK293; conditions: hek293; Not Active = under 50% inhibition at 10 µM
[1] = DRUGMATRIX: Glutamate, NMDA, Phencyclidine radioligand binding (ligand: [3H] TCP); format: cell membranes, Rattus norvegicus, Wistar, Cerebral cortex, Membrane; conditions: Not Active = under 50% inhibition at 10 µM
Cytochrome P450 2A6 = target: T1, Cytochrome P450 2A6 (Homo sapiens, UniProt P11509); conditions: bti-tn-5b1-4; further: in other assays of this panel Not Active means under 50% inhibition at 10 µM
T1 sequence (P11509 whole entry): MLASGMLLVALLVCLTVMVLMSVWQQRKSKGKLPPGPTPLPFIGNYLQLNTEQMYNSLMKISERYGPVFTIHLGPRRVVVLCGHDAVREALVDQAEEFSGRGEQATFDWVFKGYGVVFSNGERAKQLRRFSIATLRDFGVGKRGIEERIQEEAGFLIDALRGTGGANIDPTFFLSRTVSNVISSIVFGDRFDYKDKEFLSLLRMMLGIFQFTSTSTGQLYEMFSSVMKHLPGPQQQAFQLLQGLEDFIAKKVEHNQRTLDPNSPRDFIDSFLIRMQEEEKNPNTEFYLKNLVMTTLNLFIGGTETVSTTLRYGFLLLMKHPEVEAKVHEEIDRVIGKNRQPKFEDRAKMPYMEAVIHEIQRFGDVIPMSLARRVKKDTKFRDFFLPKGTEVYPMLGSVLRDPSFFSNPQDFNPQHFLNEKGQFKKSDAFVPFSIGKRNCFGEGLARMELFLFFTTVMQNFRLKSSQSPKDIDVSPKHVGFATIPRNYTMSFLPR

[2] = target: T2, Alpha-2A adrenergic receptor (Homo sapiens, UniProt P08913); format: cell membranes, Sf9, Membrane; further: in other assays of this panel Not Active means under 50% inhibition at 10 µM
T2 sequence (P08913 whole entry): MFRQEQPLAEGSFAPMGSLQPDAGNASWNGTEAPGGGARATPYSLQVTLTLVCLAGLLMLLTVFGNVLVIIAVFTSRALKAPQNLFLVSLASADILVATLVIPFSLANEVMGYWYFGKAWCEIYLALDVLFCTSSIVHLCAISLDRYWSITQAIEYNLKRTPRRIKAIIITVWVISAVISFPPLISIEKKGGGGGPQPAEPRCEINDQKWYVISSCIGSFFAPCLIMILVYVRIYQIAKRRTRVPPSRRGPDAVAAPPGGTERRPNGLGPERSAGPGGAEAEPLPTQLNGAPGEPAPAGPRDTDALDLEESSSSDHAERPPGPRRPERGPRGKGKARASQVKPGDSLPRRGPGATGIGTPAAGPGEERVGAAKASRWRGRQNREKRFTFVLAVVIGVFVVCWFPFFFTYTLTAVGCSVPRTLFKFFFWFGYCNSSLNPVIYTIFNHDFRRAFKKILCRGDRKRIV

[3] = target: Mitogen-activated protein kinase 3 (Homo sapiens, UniProt P27361); experiment: DRUGMATRIX: Protein Serine/Threonine Kinase, ERK1 enzyme inhibition (substrate: Myelin Basic Protein); set-up: species or system Escherichia coli; conditions: Not Active = under 50% inhibition at 10 µM
Chain of Mitogen-activated protein kinase 3 (P27361 whole entry): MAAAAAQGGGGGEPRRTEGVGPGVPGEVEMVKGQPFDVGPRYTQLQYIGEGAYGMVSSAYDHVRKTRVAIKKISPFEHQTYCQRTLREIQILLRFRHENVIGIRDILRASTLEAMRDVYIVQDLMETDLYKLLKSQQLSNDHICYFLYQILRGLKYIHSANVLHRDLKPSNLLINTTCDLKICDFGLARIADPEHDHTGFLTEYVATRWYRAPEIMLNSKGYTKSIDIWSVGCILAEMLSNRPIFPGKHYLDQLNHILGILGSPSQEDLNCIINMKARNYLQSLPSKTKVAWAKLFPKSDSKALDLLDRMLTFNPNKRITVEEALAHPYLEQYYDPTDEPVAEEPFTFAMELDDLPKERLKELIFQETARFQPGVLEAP

[4] = DRUGMATRIX: Platelet-Derived Growth Factor (PDGF) radioligand binding (ligand: [125I] PDGF); format: cell-based; conditions: nih3t3; Not Active = under 50% inhibition at 10 µM
Adenosine receptor A2a = Adenosine receptor A2a (Homo sapiens, UniProt P29274); experiment: DRUGMATRIX: Adenosine A2A radioligand binding (ligand: […]); format: cell membranes, HEK293, Membrane; conditions: hek293; Not Active = under 50% inhibition at 10 µM
Chain of Adenosine receptor A2a (P29274 whole entry): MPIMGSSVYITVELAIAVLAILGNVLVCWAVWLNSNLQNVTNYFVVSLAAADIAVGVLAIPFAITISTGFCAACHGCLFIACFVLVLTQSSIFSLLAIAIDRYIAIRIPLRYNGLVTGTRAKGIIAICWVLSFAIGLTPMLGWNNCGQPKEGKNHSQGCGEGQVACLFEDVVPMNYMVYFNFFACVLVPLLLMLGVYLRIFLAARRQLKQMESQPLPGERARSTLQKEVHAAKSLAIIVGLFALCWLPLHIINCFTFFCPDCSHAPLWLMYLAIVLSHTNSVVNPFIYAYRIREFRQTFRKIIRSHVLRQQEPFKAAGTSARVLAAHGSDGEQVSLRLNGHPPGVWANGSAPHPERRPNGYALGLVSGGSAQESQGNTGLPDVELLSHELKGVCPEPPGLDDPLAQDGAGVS

Chain of Acetylcholinesterase (P22303 whole entry): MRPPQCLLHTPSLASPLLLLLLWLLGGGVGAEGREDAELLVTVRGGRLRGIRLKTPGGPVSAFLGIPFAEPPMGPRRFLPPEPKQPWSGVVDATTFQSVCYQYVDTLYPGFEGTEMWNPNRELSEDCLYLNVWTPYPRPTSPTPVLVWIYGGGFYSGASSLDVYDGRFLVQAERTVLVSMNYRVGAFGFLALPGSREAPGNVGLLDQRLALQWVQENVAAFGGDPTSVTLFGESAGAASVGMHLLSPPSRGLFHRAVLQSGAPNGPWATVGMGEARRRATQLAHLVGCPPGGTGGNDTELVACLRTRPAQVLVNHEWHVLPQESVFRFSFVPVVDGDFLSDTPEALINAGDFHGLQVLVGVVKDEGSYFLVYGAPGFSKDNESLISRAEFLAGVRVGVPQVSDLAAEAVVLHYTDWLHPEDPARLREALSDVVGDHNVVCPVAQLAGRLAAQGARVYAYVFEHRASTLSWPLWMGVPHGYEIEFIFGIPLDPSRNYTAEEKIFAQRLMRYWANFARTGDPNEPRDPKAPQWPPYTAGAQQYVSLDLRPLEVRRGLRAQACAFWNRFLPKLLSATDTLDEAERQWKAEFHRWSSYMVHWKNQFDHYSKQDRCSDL

SMILES	IC50 (Acetylcholinesterase)	IC50 [1]	Ki [1]	IC50 (Cytochrome P450 2A6)	Ki (Cytochrome P450 2A6)	IC50 ([2]; sf9)	IC50 [3]	IC50 [4]	Ki [4]	IC50 (Adenosine receptor A2a)	IC50 ([3]; read-out: IC50)	IC50 ([2]; read-out: IC50)	Ki ([2]; read-out: Ki)
Cc1c(N)nc([C@H](CC(N)=O)NC[C@H](N)C(N)=O)nc1C(=O)N[C@H](C(=O)N[C@H](C)[C@@H](O)[C@H](C)C(=O)N[C@H](C(=O)NCCc1nc(-c2nc(C(=O)NCCC[S+](C)C)cs2)cs1)[C@@H](C)O)[C@@H](O[C@@H]1O[C@@H](CO)[C@@H](O)[C@H](O)[C@@H]1O[C@H]1O[C@H](CO)[C@@H](O)[C@H](OC(N)=O)[C@@H]1O)c1c[nH]cn1.[Br-] [BLEOMYCIN A2]	Not Active	Not Active	Not Active	Not Active	Not Active	Not Active	Not Active	Not Active	Not Active	Not Active	–	–	–
C#C[C@]1(O)CC[C@H]2[C@@H]3CCC4=CC(=O)CC[C@@H]4[C@H]3CC[C@@]21C [NORETHINDRONE]	Not Active	Not Active	Not Active	Not Active	Not Active	Not Active	Not Active	Not Active	Not Active	Not Active	–	–	–
COc1cc(NC(C)CCCN)c2ncccc2c1 (stereo unspecified) [PRIMAQUINE]	Not Active	Not Active	Not Active	Not Active	Not Active	Not Active	Not Active	Not Active	Not Active	Not Active	–	–	–
CCCCCCNC(=O)n1cc(F)c(=O)[nH]c1=O [CARMOFUR]	Not Active	Not Active	Not Active	Not Active	Not Active	Not Active	–	Not Active	Not Active	Not Active	6.12 µM	–	–
O=c1[nH]c2ccccc2c2ccccc12	Not Active	Not Active	Not Active	Not Active	Not Active	Not Active	Not Active	Not Active	Not Active	Not Active	–	–	–
C=C(Cl)Cl [1,1-DICHLOROETHENE]	Not Active	Not Active	Not Active	Not Active	Not Active	Not Active	Not Active	Not Active	Not Active	Not Active	–	–	–
CC(=O)[C@]1(O)Cc2c(O)c3c(c(O)c2[C@@H](O[C@H]2C[C@H](N)[C@H](O)[C@H](C)O2)C1)C(=O)c1ccccc1C3=O [IDARUBICIN]	Not Active	Not Active	Not Active	Not Active	Not Active	Not Active	Not Active	Not Active	Not Active	Not Active	–	–	–
Oc1ccccc1 [PHENOL]	Not Active	Not Active	Not Active	Not Active	Not Active	Not Active	Not Active	Not Active	Not Active	Not Active	–	–	–
O=C(Nc1ccc(Cl)c(Cl)c1)c1cc(Cl)cc(Cl)c1O [3,3',4',5-TETRACHLOROSALICYLANILIDE]	Not Active	Not Active	Not Active	Not Active	Not Active	Not Active	Not Active	Not Active	Not Active	Not Active	–	–	–
CC(=O)Nc1ccc2c(c1)Cc1ccccc1-2 [2-ACETYLAMINOFLUORENE]	Not Active	Not Active	Not Active	Not Active	Not Active	–	Not Active	Not Active	Not Active	Not Active	–	21.1 µM	7.9 µM
C[N+](C)(C)CCOC(N)=O.[Cl-] [CARBACHOL]	Not Active	Not Active	Not Active	Not Active	Not Active	Not Active	Not Active	Not Active	Not Active	Not Active	–	–	–
Oc1ncnc2[nH]ncc12 [ALLOPURINOL]	Not Active	Not Active	Not Active	Not Active	Not Active	Not Active	Not Active	Not Active	Not Active	Not Active	–	–	–
